Experimental data as given in the NIST ThermoML archive (doi:10.1021/je8007606).

Assay: excess molar enthalpy (molar enthalpy of mixing); xn = mol fraction of the nth substance listed
Details: 298.15 K, 101 kPa, Liquid, Calvet calorimetry

CCCCCCCCC [nonane] + CCCO
Details | excess molar enthalpy [kJ/mol]
x2 = 0.0794 | 0.494
x2 = 0.1401 | 0.604
x2 = 0.2595 | 0.711
x2 = 0.3588 | 0.727
x2 = 0.441 | 0.723
x2 = 0.5192 | 0.69
x2 = 0.5829 | 0.646
x2 = 0.7046 | 0.539
x2 = 0.7517 | 0.488
x2 = 0.7992 | 0.419
x2 = 0.8361 | 0.36
x2 = 0.878 | 0.282
x2 = 0.911 | 0.218
x2 = 0.9469 | 0.139
x2 = 0.9689 | 0.086
